Test [1] addresses D(2) dopamine receptor (Homo sapiens, UniProt P14416). In words: Displacement of [3H]N-methylspiperone from human dopamine D2 receptor expressed in HEK293 cell membranes after 1 hr by scintillation counting method.
Test [2] addresses D(3) dopamine receptor (Homo sapiens, UniProt P35462). In words: Displacement of [3H]N-methylspiperone from human dopamine D3 receptor expressed in HEK293 cell membranes after 1 hr by scintillation counting method. On the technique in general: Displacement assays read how much labelled ligand stays bound in the presence of the test substance.
In test [3] the target is T1, D(4) dopamine receptor (Homo sapiens, UniProt P21917).
T1 sequence (P21917 whole entry): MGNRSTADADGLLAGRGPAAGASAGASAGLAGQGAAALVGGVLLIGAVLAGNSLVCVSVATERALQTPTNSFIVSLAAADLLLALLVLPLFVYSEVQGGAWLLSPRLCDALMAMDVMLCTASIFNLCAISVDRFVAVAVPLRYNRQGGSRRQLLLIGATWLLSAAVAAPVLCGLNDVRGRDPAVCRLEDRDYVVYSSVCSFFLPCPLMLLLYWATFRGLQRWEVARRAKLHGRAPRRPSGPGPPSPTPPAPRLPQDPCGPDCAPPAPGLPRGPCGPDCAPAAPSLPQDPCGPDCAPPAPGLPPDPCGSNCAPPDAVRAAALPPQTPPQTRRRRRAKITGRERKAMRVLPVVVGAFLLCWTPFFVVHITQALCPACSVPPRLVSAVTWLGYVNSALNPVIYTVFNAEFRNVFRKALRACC
In words: Displacement of [3H]N-methylspiperone from human dopamine D4 receptor expressed in HEK293 cell membranes after 1 hr by scintillation counting method.

The species entered for test [4] is Homo sapiens. Nature of the test: Selectivity ratio of Ki for human dopamine D2 receptor to Ki for human dopamine D4 receptor.
Test [5] addresses T2, Muscarinic acetylcholine receptor M1 (Homo sapiens, UniProt P11229).
T2 sequence (P11229 whole entry): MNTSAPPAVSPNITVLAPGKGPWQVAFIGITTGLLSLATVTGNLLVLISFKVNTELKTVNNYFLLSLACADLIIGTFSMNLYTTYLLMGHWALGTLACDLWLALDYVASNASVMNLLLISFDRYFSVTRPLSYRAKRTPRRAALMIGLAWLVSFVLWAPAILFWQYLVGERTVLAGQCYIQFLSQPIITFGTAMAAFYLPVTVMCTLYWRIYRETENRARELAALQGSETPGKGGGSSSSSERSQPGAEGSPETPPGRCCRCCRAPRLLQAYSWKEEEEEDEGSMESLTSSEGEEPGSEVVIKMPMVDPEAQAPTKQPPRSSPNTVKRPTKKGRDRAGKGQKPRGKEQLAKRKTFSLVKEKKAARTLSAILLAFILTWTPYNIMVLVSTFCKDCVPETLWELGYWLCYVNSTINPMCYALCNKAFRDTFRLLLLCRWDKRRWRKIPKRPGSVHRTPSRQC
Nature of the test: Displacement of [3H]NMS from human muscarinic M1 receptor expressed in CHO cell membranes after 2 hrs by liquid scintillation counting method.

Test [6] addresses T3, Muscarinic acetylcholine receptor M2 (Homo sapiens, UniProt P08172).
T3 sequence (P08172 whole entry): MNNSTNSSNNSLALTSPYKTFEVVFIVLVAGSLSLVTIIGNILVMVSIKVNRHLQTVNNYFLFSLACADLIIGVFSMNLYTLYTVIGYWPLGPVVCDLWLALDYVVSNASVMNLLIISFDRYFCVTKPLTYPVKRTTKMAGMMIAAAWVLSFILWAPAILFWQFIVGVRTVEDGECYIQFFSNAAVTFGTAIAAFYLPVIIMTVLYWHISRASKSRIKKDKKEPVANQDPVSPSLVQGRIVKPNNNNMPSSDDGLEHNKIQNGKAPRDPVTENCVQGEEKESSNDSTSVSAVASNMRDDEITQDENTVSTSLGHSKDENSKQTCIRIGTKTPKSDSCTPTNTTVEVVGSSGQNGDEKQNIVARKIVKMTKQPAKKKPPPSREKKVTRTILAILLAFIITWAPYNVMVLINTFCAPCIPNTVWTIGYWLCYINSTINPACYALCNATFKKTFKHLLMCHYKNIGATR
Nature of the test: Displacement of [3H]NMS from human muscarinic M2 receptor expressed in CHO cell membranes after 2 hrs by liquid scintillation counting method.

The target in test [7] is Muscarinic acetylcholine receptor M3 (Homo sapiens, UniProt P20309). In words: Displacement of [3H]NMS from human muscarinic M3 receptor expressed in CHO cell membranes after 2 hrs by liquid scintillation counting method.
In test [8] the target is T4, Muscarinic acetylcholine receptor M4 (Homo sapiens, UniProt P08173).
T4 sequence (P08173 whole entry): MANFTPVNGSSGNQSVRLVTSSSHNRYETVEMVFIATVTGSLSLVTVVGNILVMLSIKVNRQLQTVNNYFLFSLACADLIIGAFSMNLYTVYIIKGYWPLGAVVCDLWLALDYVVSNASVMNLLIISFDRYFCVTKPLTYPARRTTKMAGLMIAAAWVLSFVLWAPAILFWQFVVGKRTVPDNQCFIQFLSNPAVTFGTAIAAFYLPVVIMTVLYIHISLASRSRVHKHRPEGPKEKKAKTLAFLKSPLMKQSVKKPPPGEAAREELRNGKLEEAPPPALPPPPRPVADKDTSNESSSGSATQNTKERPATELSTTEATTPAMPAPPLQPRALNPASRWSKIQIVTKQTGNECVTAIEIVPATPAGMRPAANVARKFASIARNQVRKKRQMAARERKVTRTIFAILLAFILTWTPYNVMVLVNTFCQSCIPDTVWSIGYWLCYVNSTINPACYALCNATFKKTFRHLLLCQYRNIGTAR
Nature of the test: Displacement of [3H]NMS from human muscarinic M4 receptor expressed in CHO cell membranes after 2 hrs by liquid scintillation counting method.

In test [9] the target is T5, Muscarinic acetylcholine receptor M5 (Homo sapiens, UniProt P08912).
T5 sequence (P08912 whole entry): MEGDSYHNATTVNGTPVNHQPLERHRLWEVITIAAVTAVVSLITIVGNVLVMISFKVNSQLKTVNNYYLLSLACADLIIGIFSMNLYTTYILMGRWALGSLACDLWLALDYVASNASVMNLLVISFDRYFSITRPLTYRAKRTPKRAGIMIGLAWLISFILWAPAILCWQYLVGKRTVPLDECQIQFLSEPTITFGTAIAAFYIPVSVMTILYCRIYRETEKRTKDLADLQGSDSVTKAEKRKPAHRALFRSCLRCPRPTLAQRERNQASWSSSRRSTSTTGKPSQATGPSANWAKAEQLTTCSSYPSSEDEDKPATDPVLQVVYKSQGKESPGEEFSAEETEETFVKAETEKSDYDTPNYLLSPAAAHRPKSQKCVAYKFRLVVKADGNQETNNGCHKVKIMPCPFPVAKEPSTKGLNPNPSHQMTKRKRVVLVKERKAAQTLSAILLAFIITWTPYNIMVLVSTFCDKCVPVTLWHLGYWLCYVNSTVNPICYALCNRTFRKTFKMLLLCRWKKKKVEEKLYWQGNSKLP
Nature of the test: Displacement of [3H]NMS from human muscarinic M5 receptor expressed in CHO cell membranes after 2 hrs by liquid scintillation counting method.

Test [10] concerns the target T1, D(4) dopamine receptor. Nature of the test: Antagonist activity at human SP/Myc epitope-tagged dopamine D4 receptor expressed in HEK293T cells assessed as inhibition of dopamine-induced RLuc8-fused Galphai1 activation preincubated for 15 mins followed by dopamine induction measured after 2 mins by BRET assay. In kind it is cell-based, HEK-293T. A general note: BRET reads energy transfer from a luciferase to a nearby fluorophore.

For test [11], the target named is T1, D(4) dopamine receptor. Nature of the test: Antagonist activity at human SP/Myc epitope-tagged dopamine D4 receptor expressed in HEK293T cells assessed as inhibition of dopamine-induced mVenus-fused beta-arrestin2 recruitment preincubated for 15 mins followed by dopamine induction measured after 2 mins by BRET assay. In kind it is cell-based, HEK-293T. Background: Activated receptors often draw arrestin, which recruitment assays turn into a signal.

The structures appear in SMILES notation.

The values that follow come from ChEMBL document CHEMBL4043296 (J Med Chem, 2018).

By Ki is commonly meant a dissociation constant, usually derived from enzyme kinetics or from competition with a known ligand. One may read the IC50 as the concentration needed to halve the response being measured.

Chain of Muscarinic acetylcholine receptor M3 (P20309 whole entry): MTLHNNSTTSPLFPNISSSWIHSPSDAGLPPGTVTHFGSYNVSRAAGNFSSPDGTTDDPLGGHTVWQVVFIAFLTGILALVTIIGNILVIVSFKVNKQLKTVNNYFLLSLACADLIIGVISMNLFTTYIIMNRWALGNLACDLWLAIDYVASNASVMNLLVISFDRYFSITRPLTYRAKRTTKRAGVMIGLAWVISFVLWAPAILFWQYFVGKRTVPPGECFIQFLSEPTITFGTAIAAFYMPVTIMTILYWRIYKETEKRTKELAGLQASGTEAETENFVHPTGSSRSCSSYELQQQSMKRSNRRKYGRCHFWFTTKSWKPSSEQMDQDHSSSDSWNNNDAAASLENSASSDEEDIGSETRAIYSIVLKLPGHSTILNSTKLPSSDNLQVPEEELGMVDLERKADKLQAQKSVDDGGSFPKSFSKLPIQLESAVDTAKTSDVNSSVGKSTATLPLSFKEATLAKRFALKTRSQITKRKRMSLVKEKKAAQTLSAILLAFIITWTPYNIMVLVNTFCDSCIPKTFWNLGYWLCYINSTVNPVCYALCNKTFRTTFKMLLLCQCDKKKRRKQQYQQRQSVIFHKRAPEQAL
Chain of D(2) dopamine receptor (P14416 whole entry): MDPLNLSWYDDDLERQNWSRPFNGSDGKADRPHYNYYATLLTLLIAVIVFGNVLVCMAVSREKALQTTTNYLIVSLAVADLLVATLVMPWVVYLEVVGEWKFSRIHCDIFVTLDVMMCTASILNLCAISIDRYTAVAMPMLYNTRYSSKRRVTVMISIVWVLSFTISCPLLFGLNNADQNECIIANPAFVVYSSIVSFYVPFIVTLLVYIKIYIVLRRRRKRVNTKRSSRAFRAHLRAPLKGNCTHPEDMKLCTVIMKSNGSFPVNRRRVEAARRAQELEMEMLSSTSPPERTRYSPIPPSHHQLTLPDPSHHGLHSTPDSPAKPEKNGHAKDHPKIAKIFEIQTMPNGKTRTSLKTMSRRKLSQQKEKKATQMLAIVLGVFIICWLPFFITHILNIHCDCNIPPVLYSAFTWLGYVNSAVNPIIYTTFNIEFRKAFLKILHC
Chain of D(3) dopamine receptor (P35462 whole entry): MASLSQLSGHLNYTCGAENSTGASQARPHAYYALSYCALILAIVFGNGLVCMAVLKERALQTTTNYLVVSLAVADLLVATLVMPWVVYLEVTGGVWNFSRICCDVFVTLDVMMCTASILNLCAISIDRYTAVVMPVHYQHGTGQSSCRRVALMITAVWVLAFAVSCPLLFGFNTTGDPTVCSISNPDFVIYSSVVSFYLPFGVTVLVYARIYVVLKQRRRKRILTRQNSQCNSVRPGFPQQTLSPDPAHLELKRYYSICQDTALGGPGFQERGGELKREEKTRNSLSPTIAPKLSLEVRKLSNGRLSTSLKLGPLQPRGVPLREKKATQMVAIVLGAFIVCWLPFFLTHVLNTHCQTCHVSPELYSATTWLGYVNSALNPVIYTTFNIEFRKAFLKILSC

In the case of `O=C1CCc2ccccc2N1CCCN1CCC(CCCO)CC1`, the inhibitory constant (Ki) was 0.661 µM in test [1], 0.589 µM in [2] and 0.0741 µM in [3]. The Ratio Ki in test [4] came out at 9.
In the case of `CC(C)Oc1cccnc1N(C)C1CCN(Cc2ccc(I)cc2)CC1`, the Ratio Ki in [4] came to 1720.
In the case of `O=C1CCc2ccccc2N1CCCN1CCC(c2ccccc2)CC1`, the Ki in test [1] is 0.457 µM; in test [2] it was 0.708 µM; in test [3] it was 0.00195 µM; in test [5], 2.88 µM; in test [6], 2.4 µM; in test [7] it was 4.68 µM. For the same compound, the values for the inhibition constant Ki in test [8] and in test [9] were 1.29 µM and 2.04 µM, respectively. Moreover, the Ratio Ki in test [4] turned out to be 234.
Consider `O=C1CCc2ccccc2N1CCCN1CCC(CCCCCO)CC1`, for which the inhibitory constant (Ki) in test [1] was 1.17 µM; in [2] it was 0.676 µM; in test [3], 0.00437 µM. The Ratio Ki in test [4] amounted to 269. Also, the IC50 in test [10] is 0.126 µM; in test [11], 0.151 µM.
In the case of `CCCCCC1CCN(CCCN2C(=O)CCc3ccccc32)CC1`, the Ki in test [1] was 0.525 µM; in test [2], 0.282 µM; in test [3], 0.00138 µM; in test [5], 0.49 µM; in test [6], 0.562 µM; in [7] it was 1.35 µM. The results for the Ki in test [8] and in [9] were 0.575 µM and 3.55 µM, respectively. The Ratio Ki in test [4] was 380.
For the compound `CCCCN1CCN(CCCN2C(=O)CCc3ccccc32)CC1`, the inhibition constant Ki in [1] was 5.13 µM; in [2], 3.89 µM; in test [3], 0.316 µM; in test [5], 2.69 µM; in test [6], 4.17 µM; in [7], 7.08 µM. Moreover, the inhibition constant Ki in test [8] was 3.16 µM; in test [9], 9.12 µM. In test [4], the Ratio Ki came out at 16.
Turning to `O=C1CCc2ccccc2N1CCCN1CCN(CCc2ccccc2)CC1`, the Ki in test [1] is 5.75 µM; in test [2], 3.98 µM; in test [3] it was 0.0288 µM; in test [5] it was 2.29 µM; in test [6], 1.78 µM; in [7], 6.61 µM. Moreover, the Ki was 5.13 µM in test [8] and 7.94 µM in test [9]. For the same compound, the Ratio Ki in [4] worked out at 200.
As to `CCCC1CCN(CCCN2C(=O)CCc3ccccc32)CC1`, the Ki in test [1] was 0.912 µM; in test [2], 1.55 µM; in [3], 0.00525 µM; in test [5], 2.51 µM; in [6], 1.91 µM; in test [7], 2.34 µM. The inhibition constant (Ki) was 1.66 µM in test [8] and 1.95 µM in test [9]. In addition, the Ratio Ki in test [4] was 174.
For the compound `O=C1CCc2ccccc2N1CCCN1CCC(CCCCCCCO)CC1`, the Ki in test [1] is 0.933 µM; in test [2], 0.955 µM; in test [3], 0.1 µM. Moreover, the Ratio Ki in test [4] was 9.
On to `CC1CCN(CCCN2C(=O)CCc3ccccc32)CC1`, for which the Ki in test [1] was 4.47 µM; in test [2], 3.72 µM; in [3] it was 0.257 µM; in test [5] it was 12 µM; in test [6], 11.5 µM; in test [7], 14.1 µM. For the same compound, the Ki in test [8] was 9.33 µM; in test [9] it was 24 µM. Besides, the Ratio Ki in test [4] was 17.
Take `COc1ccc(Cl)cc1OC[C@@H]1CN(Cc2ccc(Cl)cc2)CCO1`: the Ratio Ki in test [4] is 48.
`O=C1CCc2ccccc2N1CCCN1CCC(CCc2ccccc2)CC1`: the Ki in test [1] is 0.288 µM; in test [2] it was 0.407 µM; in test [3], 0.00214 µM; in test [5], 0.263 µM; in test [6] it was 0.204 µM; in [7], 0.501 µM. Besides, the inhibitory constant (Ki) in test [8] is 0.2 µM; in test [9], 0.759 µM. Further, the Ratio Ki in [4] turned out to be 135.
Take `COc1cccc(CCC2=NCCN2CCc2ccccc2)c1`: the affinity in test [3] corresponds to a Ki of 0.0955 µM. Further, the Ratio Ki in test [4] was greater than 105.
